{"source": "patent US8299056B2", "about": "(Signal Pharmaceuticals, LLC, priority 2008, dated 2012)", "note": "pIC50: −log10 of the molar value.", "data": [{"biological_target": "T1, Syk (Homo sapiens, UniProt P43405)", "T1 construct": "purchased Carna Biosciences", "test": "Syk HTRF assay", "type": "biochemical", "conditions": "IC50 activity level, read-out: Activity Level", "description": "(§1) Test compounds were prepared at a concentration of 1.5 mM in DMSO followed by 3-fold dilutions in Greiner […] polypropylene plates. A 1:4 dilution of compounds by 8 μL/well transfer from the polypropylene plates to 24 μL/well Assay Buffer in Costar 3710 384 well black plates was then performed. Kinases (13 μL/well) or Assay Buffer only (background controls; 50 mM HEPES pH 7.6, 1 mM DTT, 10 mM MgCl2, 0.01% Triton X100, 0.01% BSA and 0.1 mM EDTA) were added to Costar 3710 384-well black plates for the HTRF assays (Carna Biosciences) and compound was added from the 1:4 dilution plate. Syk start mix (87.5 μM ATP, 80 nM Substrate Peptide (American Peptide Company 332722) was added and the mixture was incubated at room temperature for 1 hour. Syk Stop Solution (120 mM EDTA in dilution buffer) was then added to the Syk HTRF assay plate and incubated at room temperature on a shaker for 2 minutes. Syk Antibody Mix (4.86 μg/mL DyLight 647 Streptavidin (Pierce 21824); 1 μg/mL Lance Eu-Anti-Phosphotyrosine (PerkinElmer AD0069)) was added to the Syk HTRF assay plate and the mixture was further incubated at room temperature for >4 h. Time resolved fluorescence was read in assay plates on a PerkinElmer EnVision. HTRF assays were performed using 320 nm excitation, 60 μs delay, 665 nm and 615 nm emission. Data was expressed by division of 665 nm by 615 nm emissions.", "values": [{"smiles": "Fc1ccc(Nc2nc3cccc(NC4CCCNC4)n3n2)cc1", "note": "(stereo in doubt) [Example 462, (R)-N^2-(4-fluorophenyl)-N^5-(piperidin-3-yl)-[1,2,4]triazolo[1,5-a]pyridin-2,5-diamine]", "pIC50": "5.00 to 6.00"}, {"smiles": "NCCCc1cccc2nc(Nc3ccccc3)nn12", "note": "[Example 498, 5-(3-aminopropyl)-N-phenyl-[1,2,4]triazolo[1,5-a]pyridin-2-amine]", "pIC50": "5.00 to 6.00"}, {"smiles": "CNCc1nc2cc(-c3cccc4nc(Nc5ccccc5)nn34)ccc2[nH]1", "note": "[Example 487, 5-(2-((methylamino)methyl)-1H-benzo[d]imidazol-5-yl)-N-phenyl-[1,2,4]triazolo[1,5-a]pyridin-2-amine]", "pIC50": "6.60 to 11.30"}, {"smiles": "NC(=O)c1ccc(Nc2nc3cccc(NC4CCNCC4)n3n2)cc1", "note": "[Example 516, 4-(5-(piperidin-4-ylamino)-[1,2,4]triazolo[1,5-a]pyridin-2-ylamino)benzamide]", "pIC50": "5.00 to 6.00"}, {"smiles": "c1cncc(Nc2nc3cccc(NC4CCCNC4)n3n2)c1", "note": "(stereo in doubt) [Example 433, (S)-N^5-(piperidin-3-yl)-N^2-(pyridin-3-yl)-[1,2,4]triazolo[1,5-a]pyridin-2,5-diamine]", "pIC50": "6.60 to 11.30"}, {"smiles": "CNc1nc2cc(-c3cccc4nc(Nc5ccccc5)nn34)ccc2[nH]1", "note": "[Example 481, 5-(2-(methylamino)-1H-benzo[d]imidazol-5-yl)-N-phenyl-[1,2,4]triazolo[1,5-a]pyridin-2-amine]", "pIC50": "6.60 to 11.30"}, {"smiles": "FC(F)(F)c1ccc(Nc2nc3cccc(N[C@H]4CCCNC4)n3n2)cc1", "note": "[Example 469, (S)-N^5-(piperidin-3-yl)-N^2-(4-(trifluoromethyl)phenyl)-[1,2,4]triazolo[1,5-a]pyridin-2,5-diamine]", "pIC50": "6.60 to 11.30"}, {"smiles": "c1ccc(Nc2nc3cccc(CC4CCNCC4)n3n2)cc1", "note": "[Example 482, N-phenyl-5-(piperidin-4-ylmethyl)-[1,2,4]triazolo[1,5-a]pyridin-2-amine]", "pIC50": "6.60 to 11.30"}, {"smiles": "c1ccc(Nc2nc3cccc(Oc4ccccc4)n3n2)cc1", "note": "[Example 503, 5-phenoxy-N-phenyl-[1,2,4]triazolo[1,5-a]pyridin-2-amine]", "pIC50": "5.00 to 6.00"}, {"smiles": "Nc1n[nH]c2ccc(-c3cccc4nc(Nc5ccccc5)nn34)cc12", "note": "[Example 511, 5-(3-amino-1H-indazol-5-yl)-N-phenyl-[1,2,4]triazolo[1,5-a]pyridin-2-amine]", "pIC50": "6.30 to 6.60"}]}, {"biological_target": "T1, Syk", "test": "Syk HTRF assay", "type": "biochemical", "conditions": "activity levels A-D, read-out: Activity Level (IC50 in the Syk HTRF assay)", "description": "as §1", "values": [{"smiles": "CC(C)(O)c1ccc(Nc2nc3cccc(N[C@H]4CC[C@@H](O)CC4)n3n2)cn1", "note": "[Example 359, cis-4-(2-(6-(2-hydroxypropan-2-yl)pyridin-3-ylamino)-[1,2,4]triazolo[1,5-a]pyridin-5-ylamino)cyclohexanol]", "pIC50": "5.00 to 6.00"}, {"smiles": "NC(=O)c1ccc(Nc2nc3cccc(N[C@H]4CC[C@@H](O)CC4)n3n2)cc1F", "note": "[Example 347, cis-2-fluoro-4-(5-(4-hydroxycyclohexylamino)-[1,2,4]triazolo[1,5-a]pyridin-2-ylamino)benzamide]", "pIC50": "6.60 to 11.30"}, {"smiles": "N#Cc1ccc(Nc2nc3cccc(N[C@H]4CC[C@@H](O)CC4)n3n2)c(F)c1", "note": "[Example 341, cis-3-fluoro-4-(5-(4-hydroxycyclohexylamino)-[1,2,4]triazolo[1,5-a]pyridin-2-ylamino)benzonitrile]", "pIC50": "5.00 to 6.00"}, {"smiles": "CNC(=O)c1ccc(Nc2nc3cccc(CC4CCNC4)n3n2)cc1", "note": "(stereo not drawn) [Example 267, N-methyl-4-(5-(pyrrolidin-3-ylmethyl)-[1,2,4]triazolo[1,5-a]pyridin-2-ylamino)benzamide]", "pIC50": "6.00 to 6.30"}, {"smiles": "OC[C@H]1CCCN1c1cccc2nc(Nc3ccc(C(F)(F)F)cc3)nn12", "note": "[Example 288, (R)-(1-(2-(4-(trifluoromethyl)phenylamino)-[1,2,4]triazolo[1,5-a]pyridin-5-yl)pyrrolidin-2-yl)methanol]", "pIC50": "6.30 to 6.60"}, {"smiles": "Cc1cc(Nc2nc3cccc(Cc4ccnc(O)c4)n3n2)ccc1F", "note": "[Example 219, 4-((2-(4-fluoro-3-methylphenylamino)-[1,2,4]triazolo[1,5-a]pyridin-5-yl)methyl)pyridin-2-ol]", "pIC50": "6.60 to 11.30"}, {"smiles": "O[C@H]1CC[C@@H](Nc2cccc3nc(Nc4ccc(F)c(F)c4)nn23)CC1", "note": "[Example 311, cis-4-(2-(3,4-difluorophenylamino)-[1,2,4]triazolo[1,5-a]pyridin-5-ylamino)cyclohexanol]", "pIC50": "6.30 to 6.60"}, {"smiles": "NC(=O)[C@H]1CC[C@@H](Oc2cccc3nc(Nc4ccc(C(F)(F)F)cc4)nn23)CC1", "note": "[Example 344, cis-4-(2-(4-(trifluoromethyl)phenylamino)-[1,2,4]triazolo[1,5-a]pyridin-5-yloxy)cyclohexanecarboxamide]", "pIC50": "6.00 to 6.30"}, {"smiles": "OC[C@@H]1CCCN1c1cccc2nc(Nc3ccc(C(F)(F)F)cc3)nn12", "note": "[Example 289, (S)-(1-(2-(4-(trifluoromethyl)phenylamino)-[1,2,4]triazolo[1,5-a]pyridin-5-yl)pyrrolidin-2-yl)methanol]", "pIC50": "5.00 to 6.00"}, {"smiles": "O[C@H]1CC[C@@H](Nc2cccc3nc(Nc4ccc5[nH]nnc5c4)nn23)CC1", "note": "[Example 237, cis-4-(2-(1H-benzo[d][1,2,3]triazolo-5-ylamino)-[1,2,4]triazolo[1,5-a]pyridin-5-ylamino)cyclohexanol]", "pIC50": "6.60 to 11.30"}, {"smiles": "O[C@H]1CC[C@@H](Nc2cccc3nc(Nc4ccccn4)nn23)CC1", "note": "[Example 349, cis-4-(2-(pyridin-2-ylamino)-[1,2,4]triazolo[1,5-a]pyridin-5-ylamino)cyclohexanol]", "pIC50": "5.00 to 6.00"}, {"smiles": "CNC(=O)c1ccc(Nc2nc3cccc(Cc4cccc(O)c4)n3n2)cc1", "note": "[Example 292, 4-(5-(3-hydroxybenzyl)-[1,2,4]triazolo[1,5-a]pyridin-2-ylamino)-N-methylbenzamide]", "pIC50": "6.60 to 11.30"}, {"smiles": "OCCNc1cc(-c2cccc3nc(Nc4ccc(C(F)(F)F)cc4)nn23)ccn1", "note": "[Example 312, 2-(4-(2-(4-(trifluoromethyl)phenylamino)-[1,2,4]triazolo[1,5-a]pyridin-5-yl)pyridin-2-ylamino)ethanol]", "pIC50": "6.60 to 11.30"}]}, {"biological_target": "T1, Syk", "test": "Syk HTRF assay", "type": "biochemical", "conditions": "read-out: Activity Level (Syk HTRF assay IC50)", "description": "as §1", "values": [{"smiles": "NC(=O)c1cc(Nc2nc3cccc(-c4ccccc4)n3n2)ccc1F", "note": "[compound 65, 2-fluoro-5-(5-phenyl-[1,2,4]triazolo[1,5-a]pyridin-2-ylamino)benzamide]", "pIC50": "5.00 to 6.00"}, {"smiles": "Oc1cccc(-c2cccc3nc(Nc4ccc(-c5ncc[nH]5)cc4)nn23)c1", "note": "[compound 16, 3-(2-(4-(1H-imidazol-2-yl)phenylamino)-[1,2,4]triazolo[1,5-a]pyridin-5-yl)phenol]", "pIC50": "6.60 to 11.30"}, {"smiles": "Cc1cc(Nc2nc3cccc(NC4CCOCC4)n3n2)cc2[nH]nc(C)c12", "note": "[compound 108]", "pIC50": "6.60 to 11.30"}, {"smiles": "O=C(NC1CCNCC1)c1ccc(Nc2nc3cccc(-c4ccccc4)n3n2)cc1", "note": "[compound 77, 4-(5-phenyl-[1,2,4]triazolo[1,5-a]pyridin-2-ylamino)-N-(piperidin-4-yl)benzamide]", "pIC50": "6.60 to 11.30"}, {"smiles": "Nc1ccc(-c2cccc3nc(Nc4ccccc4)nn23)cc1", "note": "[compound 82, 5-(4-aminophenyl)-N-phenyl-[1,2,4]triazolo[1,5-a]pyridin-2-amine]", "pIC50": "6.30 to 6.60"}, {"smiles": "Cn1cnc2ccc(Nc3nc4cccc(-c5ccccc5)n4n3)cc21", "note": "[compound 47, N-(1-methyl-1H-benzo[d]imidazol-6-yl)-5-phenyl-[1,2,4]triazolo[1,5-a]pyridin-2-amine]", "pIC50": "6.60 to 11.30"}, {"smiles": "FC(F)(F)c1n[nH]c2cc(Nc3nc4cccc(NC5CCOCC5)n4n3)ccc12", "note": "[compound 129]", "pIC50": "6.30 to 6.60"}, {"smiles": "Nc1cc(Nc2nc3cccc(-c4ccccc4)n3n2)ccn1", "note": "[compound 40]", "pIC50": "6.00 to 6.30"}, {"smiles": "Oc1cccc(-c2cccc3nc(Nc4ccc(N5CCOCC5)cc4)nn23)c1", "note": "[compound 32, 3-(2-(4-morpholinophenylamino)-[1,2,4]triazolo[1,5-a]pyridin-5-yl)phenol]", "pIC50": "6.60 to 11.30"}, {"smiles": "CNC(=O)c1ccc(Nc2nc3cccc(-c4cccc(OC)c4)n3n2)cc1", "note": "[compound 20, 4-(5-(3-methoxyphenyl)-[1,2,4]triazolo[1,5-a]pyridin-2-ylamino)-N-methylbenzamide]", "pIC50": "6.30 to 6.60"}, {"smiles": "O=C1CCCN1c1ccc(Nc2nc3cccc(-c4ccccc4)n3n2)cc1", "note": "[compound 50]", "pIC50": "6.60 to 11.30"}, {"smiles": "c1ccc(-c2cccc3nc(Nc4cccnc4)nn23)cc1", "note": "[compound 75, 5-phenyl-N-(pyridin-3-yl)-[1,2,4]triazolo[1,5-a]pyridin-2-amine]", "pIC50": "6.00 to 6.30"}, {"smiles": "Oc1cccc(-c2cccc3nc(Nc4ccc5cnoc5c4)nn23)c1", "note": "[compound 14, 3-(2-(benzo[d]isoxazol-6-ylamino)-[1,2,4]triazolo[1,5-a]pyridin-5-yl)phenol]", "pIC50": "6.60 to 11.30"}, {"smiles": "CN(C)Cc1nc2ccc(Nc3nc4cccc(-c5ccccc5)n4n3)cc2[nH]1", "note": "[compound 31, N-(2-((dimethylamino)methyl)-1H-benzo[d]imidazol-6-yl)-5-phenyl-[1,2,4]triazolo[1,5-a]pyridin-2-amine]", "pIC50": "6.60 to 11.30"}, {"smiles": "COc1ccc(Nc2nc3cccc(-c4ccccc4)n3n2)cn1", "note": "[compound 71, N-(6-methoxypyridin-3-yl)-5-phenyl-[1,2,4]triazolo[1,5-a]pyridin-2-amine]", "pIC50": "5.00 to 6.00"}, {"smiles": "CC1(C)C(=O)Nc2cc(Nc3nc4cccc(N[C@H]5CC[C@H](O)CC5)n4n3)ccc21", "note": "(stereo in doubt) [Example 175, trans-6-(5-(4-hydroxycyclohexylamino)-[1,2,4]triazolo[1,5-a]pyridin-2-ylamino)-3,3-dimethylindolin-2-one]", "pIC50": "6.60 to 11.30"}]}]}
